Results as given in patent publication EP4722201A1, “3-PHENYLISOXAZOLINE-5-CARBOXAMIDE COMPOUND, AND PREPARATION METHOD THEREFOR, HERBICIDAL COMPOSITION THEREOF AND USE THEREOF” (Jiangsu Flag Chemical Industry Co., Ltd, priority 2023, dated 2024).

What was measured:
Format in all cases: in vivo
Lolium multiflorum = experiment: Indoor herbicide activity determination, Seed Treatment; pre-emergence (soil spray)
In short: (§1)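 Pre-emergence soil spray; sandy soil pH 6.1, OM 1%, 7 cm pots; seeds covered, wetted from below, 24 h incubation under light at constant temperature; spray tower, 300 mm height, 390 mL/min nozzle flow; readout = % fresh-weight inhibition vs control at 21 d.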

Eleusine indica = experiment: as above
In short: as §1

Alopecurus japonicus = experiment: as above
In short: as §1

Digitaria sanguinalis [1] = experiment: as above; conditions: 60 g a.i./ha, read-out: Herbicidal activities (inhibition rate) Digitaria sanguinalis
In short: as §1

Eclipta prostrata [2] = experiment: as above; conditions: 60 g a.i./ha, read-out: Herbicidal activities (inhibition rate) Eclipta prostrata
In short: as §1

Cyperus iria [3] = experiment: as above; conditions: read-out: Herbicidal activities (inhibition rate) Cyperus iria; for inhibition at 60 g/ha: 60 g a.i./ha
In short: as §1

Leptochloa chinensis = experiment: as above
In short: as §1

Alopecurus myosuroides = experiment: as above
In short: as §1

Digitaria sanguinalis [4] = experiment: Indoor herbicide activity determination, post-emergence (stem and leaf spray at 2-4 leaf stage); conditions: 504 h, determined 21 days later, read-out: Inhibition rate of fresh weight, Digitaria sanguinalis; for inhibition at 30 g/ha: 30 g a.i./ha; for inhibition at 60 g/ha: 60 g a.i./ha
In short: (§2)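 Potted weeds in sandy nutrient soil (pH 6.1, 1% organic matter) were grown in a constant-temperature illuminated room to the 2-4 leaf stage, then given a stem-and-leaf spray. Plants went back to the culture room once the spray had dried in shade. At 21 days, fresh weight inhibition % was calculated relative to untreated control plants.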

Eclipta prostrata [5] = experiment: as above; conditions: 504 h, determined 21 days later, read-out: Inhibition rate of fresh weight, Eclipta prostrata; for inhibition at 30 g/ha: 30 g a.i./ha; for inhibition at 60 g/ha: 60 g a.i./ha
In short: as §2

Cyperus iria [6] = experiment: as above; conditions: 504 h, determined 21 days later, read-out: Inhibition rate of fresh weight, Cyperus iria; for inhibition at 30 g/ha: 30 g a.i./ha; for inhibition at 60 g/ha: 60 g a.i./ha
In short: as §2

Aegilops tauschii = experiment: Indoor herbicide activity determination, Seed Treatment; pre-emergence (soil spray); conditions: 120 g a.i./ha, read-out: Herbicidal activities (inhibition rate) Aegilops tauschii
In short: as §1

Compound	Herbicidal activities, Lolium multiflorum (inhibition rate class) (Lolium multiflorum; Dosage 240 g a.i./ha)	Herbicidal activities, Eleusine indica (inhibition rate class) (Eleusine indica; Dosage 240 g a.i./ha)	Herbicidal activities, Alopecurus japonicus (inhibition rate class) (Alopecurus japonicus; Dosage 240 g a.i./ha)	Herbicidal activities, Leptochloa chinensis (inhibition rate class) (Leptochloa chinensis; Dosage 240 g a.i./ha)	Herbicidal activities, Alopecurus myosuroides (inhibition rate class) (Alopecurus myosuroides; Dosage 240 g a.i./ha)	inhibition at 60 g/ha (Digitaria sanguinalis [4])	inhibition at 60 g/ha (Eclipta prostrata [5])	inhibition at 60 g/ha (Cyperus iria [6])	further results
C=C[C@]1(C(=O)N[C@H]2C[C@@H](C(=O)OC)C2)CC(c2cc(F)cc(F)c2)=NO1 [I-4]									Herbicidal activities, Lolium multiflorum (inhibition rate class) (Lolium multiflorum; Dosage 120 g a.i./ha): A (A indicates that the inhibition rate was greater than or equal to 80% to 100%); Herbicidal activities, Eleusine indica (inhibition rate class) (Eleusine indica; Dosage 120 g a.i./ha): A (A indicates that the inhibition rate was greater than or equal to 80% to 100%); Herbicidal activities, Alopecurus japonicus (inhibition rate class) (Alopecurus japonicus; Dosage 120 g a.i./ha): A (A indicates that the inhibition rate was greater than or equal to 80% to 100%); inhibition at 60 g/ha (Digitaria sanguinalis [1]): 80 to 100%; inhibition at 60 g/ha (Eclipta prostrata [2]): 80 to 100%; inhibition at 60 g/ha (Cyperus iria [3]): 80 to 100%; Herbicidal activities, Leptochloa chinensis (inhibition rate class) (Leptochloa chinensis; Dosage 120 g a.i./ha): A (A indicates that the inhibition rate was greater than or equal to 80% to 100%); Herbicidal activities, Alopecurus myosuroides (inhibition rate class) (Alopecurus myosuroides; Dosage 120 g a.i./ha): A (A indicates that the inhibition rate was greater than or equal to 80% to 100%); inhibition at 30 g/ha (Digitaria sanguinalis [4]): 80 to 100%; inhibition at 30 g/ha (Eclipta prostrata [5]): 60 to 80%; inhibition at 30 g/ha (Cyperus iria [6]): 80 to 100%
C=CC1(C(=O)N[C@H]2C[C@@H](C(=O)O)C2)CC(c2cc(F)cc(F)c2)=NO1 (stereo partly drawn) [I-1]	A (A indicates that the inhibition rate was greater than or equal to 80% to 100%)	A (A indicates that the inhibition rate was greater than or equal to 80% to 100%)	A (A indicates that the inhibition rate was greater than or equal to 80% to 100%)	A (A indicates that the inhibition rate was greater than or equal to 80% to 100%)	A (A indicates that the inhibition rate was greater than or equal to 80% to 100%)	80 to 100%	60 to 80%	80 to 100%	inhibition at 120 g/ha (Aegilops tauschii): 80 to 100%; inhibition at 120 g/ha (Cyperus iria [3]; 120 g a.i./ha): 80 to 100%
C=CC1(C(=O)N[C@H]2C[C@@H](C(=O)OC)C2)CC(c2cc(F)cc(C(F)(F)F)c2)=NO1 (mixture of isomers) [I-51]	A (A indicates that the inhibition rate was greater than or equal to 80% to 100%)	A (A indicates that the inhibition rate was greater than or equal to 80% to 100%)	A (A indicates that the inhibition rate was greater than or equal to 80% to 100%)	A (A indicates that the inhibition rate was greater than or equal to 80% to 100%)	A (A indicates that the inhibition rate was greater than or equal to 80% to 100%)	60 to 80%	60 to 80%	80 to 100%	
COC(=O)[C@H]1C[C@@H](NC(=O)C2(C(F)(F)F)CC(c3cc(F)cc(C(F)(F)F)c3)=NO2)C1 (relative stereo) [I-243]	A (A indicates that the inhibition rate was greater than or equal to 80% to 100%)	A (A indicates that the inhibition rate was greater than or equal to 80% to 100%)	A (A indicates that the inhibition rate was greater than or equal to 80% to 100%)	A (A indicates that the inhibition rate was greater than or equal to 80% to 100%)	A (A indicates that the inhibition rate was greater than or equal to 80% to 100%)	80 to 100%	60 to 80%	80 to 100%	
CC1(C(=O)N[C@H]2C[C@@H](C(=O)O)C2)CC(c2cc(F)cc(OC(F)(F)F)c2)=NO1 (mixture of isomers) [I-157]	A (A indicates that the inhibition rate was greater than or equal to 80% to 100%)	A (A indicates that the inhibition rate was greater than or equal to 80% to 100%)	A (A indicates that the inhibition rate was greater than or equal to 80% to 100%)	A (A indicates that the inhibition rate was greater than or equal to 80% to 100%)	A (A indicates that the inhibition rate was greater than or equal to 80% to 100%)	80 to 100%	60 to 80%	60 to 80%	
COC(=O)[C@H]1C[C@@H](NC(=O)C2(C(C)(F)F)CC(c3cc(F)cc(F)c3)=NO2)C1 (relative stereo) [I-347]	A (A indicates that the inhibition rate was greater than or equal to 80% to 100%)	A (A indicates that the inhibition rate was greater than or equal to 80% to 100%)	A (A indicates that the inhibition rate was greater than or equal to 80% to 100%)	A (A indicates that the inhibition rate was greater than or equal to 80% to 100%)	A (A indicates that the inhibition rate was greater than or equal to 80% to 100%)	60 to 80%	40 to 60%	80 to 100%	
C=C[C@]1(C(=O)N[C@H]2C=C[C@@H](C(=O)OCC(C)C)C2)CC(c2cc(F)cc(C(F)(F)F)c2)=NO1 [I-438]									Herbicidal activities, Eleusine indica (inhibition rate class) (Eleusine indica; Dosage 120 g a.i./ha): A (A indicates that the inhibition rate was greater than or equal to 80% to 100%); inhibition at 60 g/ha (Eclipta prostrata [2]): 80 to 100%; inhibition at 60 g/ha (Cyperus iria [3]): 80 to 100%; Herbicidal activities, Leptochloa chinensis (inhibition rate class) (Leptochloa chinensis; Dosage 120 g a.i./ha): A (A indicates that the inhibition rate was greater than or equal to 80% to 100%); inhibition at 30 g/ha (Digitaria sanguinalis [4]): 60 to 80%; inhibition at 30 g/ha (Eclipta prostrata [5]): 60 to 80%; inhibition at 30 g/ha (Cyperus iria [6]): 60 to 80%
CC1(C(=O)N[C@H]2C[C@@H](C(=O)O)C2)CC(c2cc(F)cc(Cl)c2)=NO1 (mixture of isomers) [I-132]	A (A indicates that the inhibition rate was greater than or equal to 80% to 100%)	A (A indicates that the inhibition rate was greater than or equal to 80% to 100%)	A (A indicates that the inhibition rate was greater than or equal to 80% to 100%)	A (A indicates that the inhibition rate was greater than or equal to 80% to 100%)	A (A indicates that the inhibition rate was greater than or equal to 80% to 100%)	80 to 100%	60 to 80%	80 to 100%	
COC(=O)[C@H]1C[C@@H](NC(=O)C2(C)CC(c3cc(F)cc(Cl)c3)=NO2)C1 (mixture of isomers) [I-134]	A (A indicates that the inhibition rate was greater than or equal to 80% to 100%)	A (A indicates that the inhibition rate was greater than or equal to 80% to 100%)	A (A indicates that the inhibition rate was greater than or equal to 80% to 100%)	A (A indicates that the inhibition rate was greater than or equal to 80% to 100%)	A (A indicates that the inhibition rate was greater than or equal to 80% to 100%)	80 to 100%	60 to 80%	80 to 100%	
C=CC1(C(=O)N[C@H]2C[C@@H](C(=O)OC)C2)CC(c2cc(F)cc(Cl)c2)=NO1 (mixture of isomers) [I-29]	A (A indicates that the inhibition rate was greater than or equal to 80% to 100%)	A (A indicates that the inhibition rate was greater than or equal to 80% to 100%)	A (A indicates that the inhibition rate was greater than or equal to 80% to 100%)	A (A indicates that the inhibition rate was greater than or equal to 80% to 100%)	A (A indicates that the inhibition rate was greater than or equal to 80% to 100%)	80 to 100%	40 to 60%	80 to 100%	
